In BindingDB's records for patent US20240148821 (Chugai Seiyaku Kabushiki Kaisha, 2024):
Numbered stars: 1 amine (or outer) side, 2 acyl side, 3 side chain; on linkers, the order of the positions; unused ones are H or OH. Bridge positions count the residues as written; N and C are the ends. Square brackets hold non-standard residues; d marks the D form. Peptide text beside a SMILES is read from it. * marks the point of attachment. ξ: configuration not given here. hPhe(3-Cl-4-CF3) = N[C@@H](CCc1ccc(C(F)(F)F)c(Cl)c1)C(=O)O; X101 = CN([C@@H](CCc1cscn1)C(=O)[*:2])[*:1]; NMedβ3hAla = C[C@H](CC(=O)[*:2])N(C)[*:1]; NMeGly(cPent) = CN[C@H](C(=O)O)C1CCCC1; NMehCha = CN[C@@H](CCC1CCCCC1)C(=O)O; NMeCha = CN[C@@H](CC1CCCCC1)C(=O)O; ξPro(4,4-F2) = O=C(O)C1CC(F)(F)CN1; NMeChg = CN[C@H](C(=O)O)C1CCCCC1; N(CH2CH2)2CF2 = FC1(F)CCN(*)CC1; NMeD = CN[C@@H](CC(=O)O)C(=O)O; NMeL = CN[C@@H](CC(C)C)C(=O)O; Cba = N[C@@H](CC1CCC1)C(=O)O; NMeV = CN[C@H](C(=O)O)C(C)C; Ac7c = NC1(C(=O)O)CCCCCC1; NMeA = CN[C@@H](C)C(=O)O; Piperidide = C1CCN(*)CC1; Pyrrolidide = C1CCN(*)C1; Ac5c = NC1(C(=O)O)CCCC1; ξAze = O=C(O)C1CCN1; ξP = O=C(O)C1CCCN1; Sar = CNCC(=O)O

Each compound was assayed against GTPase KRas (G12D) and Son of Sevenless Homolog 1 (SOS) (Homo sapiens, UniProt P01116, G12D) (assay: AlphaScreen Assay).
GTPase KRas (G12D) and Son of Sevenless Homolog 1 (SOS), sequence (P01116 whole entry G12D): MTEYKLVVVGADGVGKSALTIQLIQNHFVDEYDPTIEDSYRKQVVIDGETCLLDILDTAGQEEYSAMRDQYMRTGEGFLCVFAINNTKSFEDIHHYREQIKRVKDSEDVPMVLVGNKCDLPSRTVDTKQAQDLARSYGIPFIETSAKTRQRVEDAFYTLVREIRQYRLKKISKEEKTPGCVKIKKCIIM
GTPase KRas (G12D) and Son of Sevenless Homolog 1 (SOS), sequence (Q07889 whole entry, further chain): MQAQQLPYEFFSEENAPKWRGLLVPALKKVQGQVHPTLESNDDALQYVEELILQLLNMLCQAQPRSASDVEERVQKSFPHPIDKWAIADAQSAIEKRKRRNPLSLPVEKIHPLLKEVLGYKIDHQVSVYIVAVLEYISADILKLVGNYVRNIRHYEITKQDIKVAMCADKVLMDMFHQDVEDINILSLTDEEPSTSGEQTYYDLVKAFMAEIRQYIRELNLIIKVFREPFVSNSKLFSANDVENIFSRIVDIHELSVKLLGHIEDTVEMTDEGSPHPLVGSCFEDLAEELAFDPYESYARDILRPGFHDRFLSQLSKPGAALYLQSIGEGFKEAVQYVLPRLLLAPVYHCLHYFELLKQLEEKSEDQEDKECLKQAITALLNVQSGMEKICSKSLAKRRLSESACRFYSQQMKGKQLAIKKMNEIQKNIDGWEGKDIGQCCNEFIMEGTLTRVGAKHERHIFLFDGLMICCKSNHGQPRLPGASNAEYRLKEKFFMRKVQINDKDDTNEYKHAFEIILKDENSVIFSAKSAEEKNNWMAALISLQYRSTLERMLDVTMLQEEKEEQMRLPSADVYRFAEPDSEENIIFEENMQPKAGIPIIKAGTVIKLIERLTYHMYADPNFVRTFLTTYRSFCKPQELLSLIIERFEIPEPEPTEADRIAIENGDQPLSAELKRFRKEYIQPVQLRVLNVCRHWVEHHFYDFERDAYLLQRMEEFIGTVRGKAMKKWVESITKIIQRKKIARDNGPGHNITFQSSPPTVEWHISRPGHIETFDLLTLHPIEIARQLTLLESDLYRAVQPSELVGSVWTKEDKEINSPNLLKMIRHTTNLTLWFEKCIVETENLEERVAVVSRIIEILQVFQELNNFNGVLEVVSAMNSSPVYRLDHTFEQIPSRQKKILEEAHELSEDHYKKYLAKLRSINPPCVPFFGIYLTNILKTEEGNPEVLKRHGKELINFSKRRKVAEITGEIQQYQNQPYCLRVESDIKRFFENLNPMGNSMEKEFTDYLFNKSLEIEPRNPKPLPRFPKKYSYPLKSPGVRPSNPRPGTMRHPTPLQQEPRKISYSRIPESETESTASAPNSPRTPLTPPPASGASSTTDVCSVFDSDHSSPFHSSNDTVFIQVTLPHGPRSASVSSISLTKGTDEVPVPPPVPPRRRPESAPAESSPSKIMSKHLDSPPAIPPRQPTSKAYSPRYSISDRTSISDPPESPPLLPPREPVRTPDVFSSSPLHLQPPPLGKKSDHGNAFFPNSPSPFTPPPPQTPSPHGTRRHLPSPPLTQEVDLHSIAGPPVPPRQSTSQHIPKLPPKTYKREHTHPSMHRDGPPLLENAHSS
Experimental: Protein-protein interaction inhibition (PPI) between Kras and SOS1 was measured by energy transfer from nickel-conjugated donor beads to streptavidin-conjugated acceptor beads using biotin-tagged human Kras expressed in E. coli and loaded with GDP after purification and His-tagged human SOS1 enzyme. This measurement utilizes the phenomenon in which donor beads are irradiated with light at 680 nm, such that energy is transferred to acceptor beads through singlet oxygen and light at 520-620 nm is detected from the acceptor beads.

CC[C@H](C)[C@@H]1NC(=O)[C@H](CC(C)C)N(C)C(=O)C[C@@H](C(=O)N2CCCC2)N(C)C(=O)[C@H](C2CCCC2)N(C)C(=O)C2(CCCC2)NC(=O)[C@H](CC(=O)N2CCC(F)(F)CC2)N(C)C(=O)[C@H](CCc2ccc(C(F)(F)F)c(Cl)c2)NC(=O)CN(C)C(=O)[C@H](CCC2CCCCC2)N(C)C(=O)C2CCN2C(=O)[C@H](C)N(C)C1=O (some centres undefined) [US20240148821, Compound 26] ([NMeL]I[NMeA][ξAze][NMehCha][Sar][hPhe(3-Cl-4-CF3)][NMeD](N(CH2CH2)2CF2)[Ac5c][NMeGly(cPent)][NMeD]-Pyrrolidide; lactam N-11) and CC[C@H](C)[C@@H]1NC(=O)[C@H](CC(C)C)N(C)C(=O)C[C@@H](C(=O)N2CCCCC2)N(C)C(=O)[C@H](C2CCCCC2)N(C)C(=O)C2(CCCC2)NC(=O)[C@H](CCc2cscn2)N(C)C(=O)[C@H](CCc2ccc(C(F)(F)F)c(Cl)c2)NC(=O)CN(C)C(=O)[C@H](CC2CCCCC2)N(C)C(=O)CN(C)C(=O)CN(C)C1=O [US20240148821, Compound 500] ([NMeL]I[Sar][Sar][NMeCha][Sar][hPhe(3-Cl-4-CF3)][X101][Ac5c][NMeChg][NMeD]-Piperidide; lactam N-11) are within 1.5-fold of each other in IC50: 4.3 nM for the first, 4.8 nM for the second.

Compared with CC(C)C[C@H]1C(=O)N[C@@H](C2CC2)C(=O)N(C)CC(=O)N(C)CC(=O)N(C)[C@@H](CCC2CCCCC2)C(=O)N(C)CC(=O)N[C@@H](CCc2ccc(C(F)(F)F)c(Cl)c2)C(=O)N2CCCC2C(=O)NC2(CCCC2)C(=O)N(C)[C@@H](C(C)C)C(=O)N[C@H](C)CC(=O)N1C (some centres undefined) [US20240148821, Compound 101], CC[C@H](C)[C@@H]1NC(=O)[C@H](CCC2CCC2)N(C)C(=O)C[C@@H](C)NC(=O)[C@H](C(C)C)N(C)C(=O)C2(CCCC2)NC(=O)C2CCCN2C(=O)[C@H](CCc2ccc(C(F)(F)F)c(Cl)c2)NC(=O)CN(C)C(=O)[C@H](CC2CCCCC2)N(C)C(=O)CN(C)C(=O)CN(C)C1=O (some centres undefined) [US20240148821, Compound 230] is 4.1-fold lower in IC50: 160 nM for the first, 39 nM for the second. The second is the more potent here.

Compared with CC[C@H](C)[C@@H]1NC(=O)[C@H](CC(C)C)N(C)C(=O)C[C@@H](C)N(C)C(=O)[C@H](C2CCCC2)N(C)C(=O)C2(CCCC2)NC(=O)C2CC(F)(F)CN2C(=O)[C@H](CCc2ccc(C(F)(F)F)c(Cl)c2)NC(=O)CN(C)C(=O)[C@H](CCC2CCCCC2)N(C)C(=O)CN(C)C(=O)CN(C)C1=O (some centres undefined) [US20240148821, Compound 107] (cyclo([Ac5c][NMeGly(cPent)][NMedβ3hAla][NMeL]I[Sar][Sar][NMehCha][Sar][hPhe(3-Cl-4-CF3)][ξPro(4,4-F2)])), C#CCC[C@H]1C(=O)N[C@@H]([C@@H](C)CC)C(=O)N(C)CC(=O)N(C)CC(=O)N(C)[C@@H](CCc2ccc(I)cc2)C(=O)N(C)CC(=O)N[C@@H](CCc2ccc(C(F)(F)F)c(Cl)c2)C(=O)N2CCCC2C(=O)NC2(CCCC2)C(=O)N(C)[C@@H](C2CCCCC2)C(=O)N[C@H](C)CC(=O)N1C (some centres undefined) [US20240148821, Compound 300] is 2.4-fold higher in IC50: 4 nM for the first, 9.5 nM for the second.

Compared with CCCC[C@@H]1NC(=O)[C@H](Cc2cccc(I)c2)NC(=O)CN(CC)C(=O)[C@H](Cc2ccc(Cl)cc2)N(CC)C(=O)CN(CC)C(=O)CN(CC)C(=O)[C@H]([C@@H](C)CC)NC(=O)[C@H](CC(C)C)N(CC)C(=O)CC(C(=O)N2CCCCC2)N(CC)C(=O)[C@H](CC(C)C)NC(=O)[C@H](Cc2ccccc2OC(F)(F)F)N(CC)C1=O (some centres undefined) [US20240148821, Compound 111], CC[C@H](C)[C@@H]1NC(=O)[C@H](CC(C)C)N(C)C(=O)C[C@@H](C)NC(=O)[C@H](CC(C)C)N(C)C(=O)C(C)(C)NC(=O)[C@H](CC(C)C)N(C)C(=O)[C@H](CCc2cc(F)c(C(F)(F)F)c(F)c2)NC(=O)CN(C)C(=O)[C@H](C(=O)CC2CCCCC2)N(C)C(=O)CN(C)C(=O)CN(C)C1=O [US20240148821, Compound 119] is 2.6-fold lower in IC50: 100 nM for the first, 39 nM for the second.

With CC(C)C[C@H]1C(=O)N[C@@H](CC2CCC2)C(=O)N(C)CC(=O)N(C)CC(=O)N(C)[C@@H](CC2CCCCC2)C(=O)N(C)CC(=O)N[C@@H](CCc2ccc(C(F)(F)F)c(Cl)c2)C(=O)N2CCCC2C(=O)NC2(CCCCCC2)C(=O)N(C)[C@@H](C(C)C)C(=O)N(C)[C@H](C(=O)N2CCCCC2)CC(=O)N1C (some centres undefined) [US20240148821, Compound 451] ([NMeL][Cba][Sar][Sar][NMeCha][Sar][hPhe(3-Cl-4-CF3)][ξP][Ac7c][NMeV][NMeD]-Piperidide; lactam N-11) the IC50 was 10 nM.
